From patent publication US9932355B2, “2,5,6,7-tetrasubstituted thiazolo[4,5-b]pyridine derivatives and use thereof” (KYUNGPOOK NATIONAL UNIVERSITY INDUSTRY-ACADEMIC COOPERATION …, priority 2014, dated 2018)

Tested on: CLP-induced sepsis mouse model
Assay: Survival rate of CLP-induced sepsis mouse model
Format: in vivo
Conditions: male ICR mice, CLP surgery; tail intravenous injection 12 and 50 hours after surgery; FIG. 1
Method: An anti-inflammation effect of the prepared compound was tested by a survival rate of the sepsis mouse model induced by peritonitis. A CLP-induced sepsis mouse model is an in vivo method for investigating an anti-inflammation action, and the manufacturing method of the mouse model is a widely used experiment method [Wang H, Nat. Med., 2004, 10, 1216-1221]. 40 six-week-old male ICR mice were divided into 10 mice per each group, and the survival rate was observed.
First, after the male mouse was anesthetized by respiration using isoflurane, the abdomen of the mouse was cut in the middle by approximately 2 cm to take out an appendix adjacent to intestines, and the appendix was tied up at a part apart from 0.5 mm from the end of the appendix with a 3.0-silk suture, pierced once with a 22-gauge needle, and sutured the cut part with a 4.0 silk suture. An abdomen of a sham mouse was cut and sutured without tie-up or piercing of the appendix, and after 12 and 50 hours of the surgery, the prepared compound was administered by mouse tail intravenous injection.

COc1ccc(CNc2nc3nc4c(c(-c5ccc(OC)cc5)c3s2)CCCC4)cc1 [Compound 1-65, N-(4-methoxybenzyl)-9-(4-methoxyphenyl)-5,6,7,8-tetrahydrothiazolo[4,5-b]quinoline-2-amine]
survival rate increased, compared to the only CLP-treated group: 60%
